Legend:
[1] = system: Corn; assay: Greenhouse test, combination of Procedures II and III: insecticide in-furrow or in cover layer, herbicide and antidote incorporated in cover layer (Examples 1-3, 6; Tables 1-3, 6); type: in vivo; settings: for Percent Injury Corn: 7 weeks; for corn injury safened: 0.14 kg/ha herbicide plus Insecticide No. 1, Antidote No. 1 0.42 kg/ha
[2] = system: VELE (velvetleaf); assay: Greenhouse test Procedure I with PPI or POE herbicide and foliar insecticide (Example 5; Table 5); type: in vivo, Abutilon theophrasti; settings: 3 weeks
Experimental: (§1) Containers were filled and compacted with a fumigated silt loam top soil to a depth of about 1.3 cm from the top of the container. A first container was designated as an untreated control, a second container was designated as a herbicide control, and a third container was designated as a herbicide + antidote test container. Each of the containers was seeded with a crop species. A measured amount of herbicide dispersed or dissolved in acetone was applied to a measured quantity of soil. To this same quantity of soil treated with herbicide, there was added a measured amount of antidote dispersed or dissolved in acetone. The quantity of soil treated with the herbicide and antidote was thoroughly mixed to incorporate the herbicide and antidote in the soil uniformly. The seed bed in the third container of soil was covered with the soil treated with the herbicide and antidote and the container was leveled. For each test series, the seed beds of the first and second containers were likewise covered by soil layers. the cover layer of the first container was not treated with herbicide or antidote.
(§2) Insecticide application was made as described in the tests in the examples below. The containers were then placed on a bench in a greenhouse and sub-irrigated as required for the duration of the test.
(§3) Said herbicide and antidote were sequentially pipetted onto cover layers, which were spread over the seed beds and subirrigated as in Procedure I and allowed to grow to a height of about 10 cm over a period of 11 days. Herbicide No. 1 and Insecticide No. 2 were then sequentially sprayed on the plant foliage. Observations were made three (3) weeks after initial treatment, 10 days after foliar treatment).

[3] = system: Corn; assay: Greenhouse test Procedure II: herbicide, insecticide and antidote incorporated in cover layer (Example 4; Table 4); type: in vivo; settings: 3 weeks
Summary of the method: (§4)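 Herbicide, insecticide and antidote in acetone were track-sprayed sequentially onto a soil cover layer, incorporated and spread over seeded beds in silt loam. Initial overhead irrigation equal to 0.6 cm rainfall, then sub-irrigation in the greenhouse. Injury was rated 3 weeks after treatment against untreated and herbicide-only controls.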

[4] = system: Corn; assay: Greenhouse test Procedure I with PPI or POE herbicide and foliar insecticide (Example 5; Table 5); type: in vivo; settings: for % Injury Corn: 3 weeks
Experimental: as §1, §2, §3

[5] = system: VELE (velvetleaf); assay: Greenhouse test Procedure II (Example 4; Table 4); type: in vivo, Abutilon theophrasti; settings: 3 weeks
Summary of the method: as §4

[6] = Antidote 1 0.14 + Herbicide 1 0.14 Kg/Ha PPI
[7] = Antidote 1 0.56 + Herbicide 1 0.56 Kg/Ha PPI
[8] = Antidote 1 2.24 + Herbicide 1 2.24 Kg/Ha PPI
[9] = Insecticide 2 1.68 (foliar) + Antidote 1 0.14 + Herbicide 1 0.14 Kg/Ha PPI
[10] = Insecticide 2 1.68 (foliar) + Antidote 1 2.24 + Herbicide 1 2.24 Kg/Ha PPI
[11] = Insecticide 2 1.68 (foliar) + Antidote 1 2.24 Kg/Ha PPI, no herbicide
[12] = Antidote 1 0.07 + Herbicide 1 0.07 kg/Ha
[13] = Antidote 1 0.07 + Herbicide 4 0.07 kg/Ha
[14] = Antidote 1 0.07 + Herbicide 5 0.07 kg/Ha
[15] = Antidote 1 0.07 + Herbicide 6 0.07 kg/Ha
[16] = Antidote 1 0.14 + Herbicide 1 0.14 kg/Ha
[17] = Antidote 1 0.14 + Herbicide 4 0.14 kg/Ha
[18] = Antidote 1 0.14 + Herbicide 5 0.14 kg/Ha
[19] = Antidote 1 0.14 + Herbicide 6 0.14 kg/Ha
[20] = Insecticide 2 3.36 + Antidote 1 0.014 + Herbicide 1 0.14 kg/Ha
[21] = Insecticide 2 3.36 + Antidote 1 0.07 + Herbicide 1 0.07 kg/Ha
[22] = Insecticide 2 3.36 + Antidote 1 0.07 + Herbicide 4 0.07 kg/Ha
[23] = Insecticide 2 3.36 + Antidote 1 0.07 + Herbicide 5 0.07 kg/Ha
[24] = Insecticide 2 3.36 + Antidote 1 0.07 + Herbicide 6 0.07 kg/Ha
[25] = Insecticide 2 3.36 + Antidote 1 0.14 + Herbicide 4 0.14 kg/Ha
[26] = Insecticide 2 3.36 + Antidote 1 0.14 + Herbicide 5 0.14 kg/Ha
[27] = Insecticide 2 3.36 + Antidote 1 0.14 + Herbicide 6 0.14 kg/Ha

Q: With `CC1(C)OC(c2ccco2)CN1C(=O)C(Cl)Cl` (stereo not drawn) [Antidote No. 1, Oxazolidine, 3-(dichloroacetyl)-2,2-dimethyl-5-(2-furanyl)-] as the compound, how does the “% Corn Injury PN 3377” value ([1]; Ex. 6: Insecticide 2 0.23 Kg/305m + Antidote 1 1.68 + Herbicide 1 0.56 Kg/Ha, 3 weeks) read?
A: 28%

Q: What about the “Percent Injury Corn” value ([1]; Insecticide 1 0.23 kg/305m + Antidote 1 0.14 + Herbicide 1 0.14 Kg/Ha) of the same compound?
A: 8%

Q: What about the “Percent Injury Corn” value ([1]; Insecticide 1 0.23 kg/305m + Antidote 1 0.14 Kg/Ha, no herbicide) of the same compound?
A: 0%

Q: What about the “Percent Injury Corn” value ([1]; Insecticide 1 0.23 kg/305m + Antidote 1 0.56 + Herbicide 1 0.56 Kg/Ha) of the same compound?
A: 25%

Q: And the “Percent Injury Corn” value ([1]; Insecticide 1 0.23 kg/305m + Antidote 1 0.56 Kg/Ha, no herbicide)?
A: 0%

Q: And the “Percent Injury Corn” value ([1]; Insecticide 1 0.23 kg/305m + Antidote 1 2.24 + Herbicide 1 2.24 Kg/Ha)?
A: 77%

Q: What about the “Percent Injury Corn” value ([1]; Insecticide 1 0.23 kg/305m + Antidote 1 2.24 Kg/Ha, no herbicide) of the same compound?
A: 0%

Q: What about the “Percent Injury Corn” value ([1]; Insecticide 1 (H2O) (crystals scattered in-furrow) + Antidote 1 2 + Herbicide 1 2 Kg/Ha) of the same compound?
A: 78%

Q: And the “Percent Injury Corn” value ([1]; Insecticide 1 (H2O) (crystals scattered in-furrow) + Antidote 1 2 Kg/Ha)?
A: 13%

Q: What about the “Percent Injury Corn” value ([1]; Insecticide 2 3.36 kg/ha + Antidote 1 0.14 + Herbicide 1 0.14 Kg/Ha) of the same compound?
A: 75%

Q: And the “Percent Injury Corn” value ([1]; Insecticide 2 3.36 kg/ha + Antidote 1 0.14 Kg/Ha, no herbicide)?
A: 0%

Q: And the “Percent Injury Corn” value ([1]; Insecticide 2 3.36 kg/ha + Antidote 1 0.56 + Herbicide 1 0.56 Kg/Ha)?
A: 70%

Q: What about the “Percent Injury Corn” value ([1]; Insecticide 2 3.36 kg/ha + Antidote 1 0.56 Kg/Ha, no herbicide) of the same compound?
A: 0%

Q: What about the “Percent Injury Corn” value ([1]; Insecticide 2 3.36 kg/ha + Antidote 1 2.24 + Herbicide 1 2.24 Kg/Ha) of the same compound?
A: 92%

Q: And the “Percent Injury Corn” value ([1]; Insecticide 2 3.36 kg/ha + Antidote 1 2.24 Kg/Ha, no herbicide)?
A: 0%

Q: What about the corn injury safened ([1]; sensitive genotype PN 3320) of the same compound?
A: 74%

Q: And the corn injury safened ([1]; tolerant genotype PN 3377)?
A: 96%

Q: And the “% Injury VELE” value [2, 6]?
A: 85%

Q: What about the “% Injury VELE” value [2, 7] of the same compound?
A: 80%

Q: What about the “% Injury VELE” value [2, 8] of the same compound?
A: 93%

Q: What about the “% Injury VELE” value [2, 9] of the same compound?
A: 90%

Q: What about the “% Injury VELE” value ([2]; Insecticide 2 1.68 (foliar) + Antidote 1 0.56 + Herbicide 1 0.56 Kg/Ha PPI) of the same compound?
A: 93%

Q: What about the “% Injury VELE” value [2, 10] of the same compound?
A: 93%

Q: What about the “% Injury VELE” value [2, 11] of the same compound?
A: 0%

Q: And the “% Injury Corn” value [3, 12]?
A: 0%

Q: What about the “% Injury Corn” value [3, 13] of the same compound?
A: 0%

Q: What about the “% Injury Corn” value [3, 14] of the same compound?
A: 20%

Q: And the “% Injury Corn” value [3, 15]?
A: 0%

Q: And the “% Injury Corn” value [3, 16]?
A: 10%

Q: And the “% Injury Corn” value [3, 17]?
A: 8%

Q: And the “% Injury Corn” value [3, 18]?
A: 55%

Q: And the “% Injury Corn” value [3, 19]?
A: 3%

Q: And the “% Injury Corn” value [3, 20]?
A: 0%

Q: And the “% Injury Corn” value [3, 21]?
A: 0%

Q: And the “% Injury Corn” value [3, 22]?
A: 25%

Q: And the “% Injury Corn” value [3, 23]?
A: 95%

Q: And the “% Injury Corn” value [3, 24]?
A: 5%

Q: What about the “% Injury Corn” value [3, 25] of the same compound?
A: 88%

Q: And the “% Injury Corn” value [3, 26]?
A: 95%

Q: What about the “% Injury Corn” value [3, 27] of the same compound?
A: 63%

Q: And the “% Injury Corn” value [4, 6]?
A: 0%

Q: What about the “% Injury Corn” value [4, 7] of the same compound?
A: 5%

Q: And the “% Injury Corn” value [4, 8]?
A: 0%

Q: What about the “safening” value ([4]; Ex. 5: PPI Herbicide No. 1 with or without Insecticide No. 2) of the same compound?
A: safened PPI herbicide treatments

Q: And the “% Injury Corn” value [4, 9]?
A: 0%

Q: And the “% Injury Corn” value [4, 10]?
A: 0%

Q: What about the “% Injury Corn” value [4, 11] of the same compound?
A: 0%

Q: And the “% Injury VELE” value [5, 12]?
A: 8%

Q: What about the “% Injury VELE” value [5, 13] of the same compound?
A: 0%

Q: And the “% Injury VELE” value [5, 14]?
A: 68%

Q: What about the “% Injury VELE” value [5, 15] of the same compound?
A: 5%

Q: And the “% Injury VELE” value [5, 16]?
A: 43%

Q: And the “% Injury VELE” value [5, 17]?
A: 30%

Q: And the “% Injury VELE” value [5, 18]?
A: 68%

Q: What about the “% Injury VELE” value [5, 19] of the same compound?
A: 28%

Q: What about the “% Injury VELE” value [5, 20] of the same compound?
A: 53%

Q: And the “% Injury VELE” value [5, 21]?
A: 23%

Q: What about the “% Injury VELE” value [5, 22] of the same compound?
A: 0%

Q: What about the “% Injury VELE” value [5, 23] of the same compound?
A: 55%

Q: And the “% Injury VELE” value [5, 24]?
A: 15%

Q: What about the “% Injury VELE” value [5, 25] of the same compound?
A: 78%

Q: And the “% Injury VELE” value [5, 26]?
A: 83%

Q: And the “% Injury VELE” value [5, 27]?
A: 40%
